# Measured values as given in publication PMC6352943, “Novel pyrazolo[3,4-d]pyrimidines: design, synthesis, anticancer activity, dual EGFR/ErbB2 receptor tyrosine kinases inhibitory activity, effects on cell cycle profile and caspase-3-mediated apoptosis” (Journal of Enzyme Inhibition and Medicinal Chemistry, 2019).
# Several values for one entry are separate records, joined by “and”; a condition that tells them apart may be missing. Equal values may be shown once.
# Biological target: T1, ErbB2 (Homo sapiens, UniProt P04626)
# T1 construct: purchased
# Assay: ErbB2 kinase inhibition (HTScan HER2/ErbB2 Kinase Assay Kit)
# Assay type: biochemical
# Details: mean ± SD of three experiments; read-out: IC50 for inhibitory activity against ErbB2 enzyme
# Method: In brief, add 10 μL of 10 mM ATP to 1.25 ml of 6 μM substrate peptide. Dilute the mixture with dH20 to 2.5 ml. Transfer enzyme from −80 °C to ice. Allow enzyme to thaw on ice. Micro-centrifuge briefly at 4 °C. Return immediately to ice. […] Transfer 1.2 ml of DTT/Kinase buffer to each enzyme. […] Add 25 μL of ATP/substrate cocktail to 25 μL/well pre-incubated reaction cocktail/compound. Incubate reaction plate at room temperature for 30 min. Add 50 μL/well stop buffer to stop the reaction. Transfer 25 μL of each reaction and 75 μL dH2O/well to a 96-well streptavidin coated, plate and incubate at room temperature for 60 min. Wash three times with 200 μL/well phosphate-buffered saline (PBS). […] Add 100 μL/well primary antibody. Incubate at room temperature for 60 min and wash three times. Prepare appropriate dilution of horseradish peroxidase (HRP) labelled secondary antibody in PBS with 1% BSA. Add 100 μL/well secondary antibody solution. Incubate at room temperature for 30 min and wash five times. Add 100 μL/well 3,3′,5,5′-tetramethylbenzidine (TMB) substrate. Incubate at room temperature for 15 min. Add 100 μL/well of stop solution. Mix well and read the absorbance at 450 nm with a microtitre plate reader.
# T1 sequence (P04626 23-1255): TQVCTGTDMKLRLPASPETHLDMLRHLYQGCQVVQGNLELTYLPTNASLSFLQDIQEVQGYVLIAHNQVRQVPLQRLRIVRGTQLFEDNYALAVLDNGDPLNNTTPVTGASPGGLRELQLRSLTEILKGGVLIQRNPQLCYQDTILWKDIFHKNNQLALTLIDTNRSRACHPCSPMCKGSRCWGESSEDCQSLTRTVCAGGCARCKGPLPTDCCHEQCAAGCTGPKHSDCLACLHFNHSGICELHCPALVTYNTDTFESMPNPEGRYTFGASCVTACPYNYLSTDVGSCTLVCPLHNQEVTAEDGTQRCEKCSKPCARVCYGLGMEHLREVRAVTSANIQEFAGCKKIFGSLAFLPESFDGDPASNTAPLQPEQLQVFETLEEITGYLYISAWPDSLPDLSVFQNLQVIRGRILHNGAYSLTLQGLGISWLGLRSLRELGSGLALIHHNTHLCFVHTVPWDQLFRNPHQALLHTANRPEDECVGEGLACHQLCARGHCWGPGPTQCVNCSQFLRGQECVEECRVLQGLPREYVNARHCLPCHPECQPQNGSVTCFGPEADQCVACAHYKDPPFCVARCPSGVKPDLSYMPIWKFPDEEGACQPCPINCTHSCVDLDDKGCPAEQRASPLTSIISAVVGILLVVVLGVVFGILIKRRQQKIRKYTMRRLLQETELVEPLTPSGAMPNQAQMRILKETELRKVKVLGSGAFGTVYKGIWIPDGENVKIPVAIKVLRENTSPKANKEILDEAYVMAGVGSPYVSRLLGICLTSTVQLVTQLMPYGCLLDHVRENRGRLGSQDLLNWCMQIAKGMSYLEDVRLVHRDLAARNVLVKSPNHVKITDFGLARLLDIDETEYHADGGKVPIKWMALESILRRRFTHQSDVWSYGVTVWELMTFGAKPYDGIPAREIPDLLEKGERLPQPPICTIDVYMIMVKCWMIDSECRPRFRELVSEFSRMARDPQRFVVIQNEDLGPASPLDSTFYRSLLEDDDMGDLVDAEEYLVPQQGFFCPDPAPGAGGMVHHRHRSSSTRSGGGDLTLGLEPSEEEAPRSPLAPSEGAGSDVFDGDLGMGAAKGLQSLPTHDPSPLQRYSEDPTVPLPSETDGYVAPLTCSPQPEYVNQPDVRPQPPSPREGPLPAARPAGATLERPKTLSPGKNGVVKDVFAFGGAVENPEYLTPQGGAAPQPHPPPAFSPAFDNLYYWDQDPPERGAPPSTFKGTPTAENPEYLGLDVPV
structure (smiles),measurement,value
"Cc1nn(-c2ccc(F)cc2)c2ncnc(Nc3ccc(F)c(Cl)c3)c12 [Compound 7d, N-(3-Chloro-4-fluorophenyl)-1–(4-fluorophenyl)-3-methyl-1H-pyrazolo[3,4-d] pyrimidin-4-amine]",IC50,250 nM and 254 nM
